How the values were obtained:
[1] = tested on: HSC-2; experiment: Cytotoxicity against human HSC2 cells; format: functional
[2] = Cytotoxicity against human HGF cells; format: cell-based
[3] = tested on: HL-60; experiment: Selectivity index, ratio of CC50 for normal cells to CC50 for human HL60 cells; format: functional
[4] = tested on: HSC-3; experiment: Cytotoxicity against human HSC3 cells; format: functional
[5] = tested on: HSC-4; experiment: Cytotoxicity against human HSC4 cells; format: functional
[6] = tested on: HSC-3; experiment: Selectivity index, ratio of CC50 for normal cells to CC50 for human HSC3 cells; format: functional
[7] = Cytotoxicity against human HPLF cells; format: cell-based
[8] = tested on: HSC-2; experiment: Selectivity index, ratio of CC50 for normal cells to CC50 for human HSC2 cells; format: functional
[9] = Cytotoxicity against human HPC cells; format: cell-based
[10] = tested on: HSC-4; experiment: Selectivity index, ratio of CC50 for normal cells to CC50 for human HSC4 cells; format: functional
[11] = tested on: HL-60; experiment: Cytotoxicity against human HL60 cells; format: functional

SMILES | CC50 [1] | CC50 [2] | Selectivity Index [3] | CC50 [4] | CC50 [5] | Selectivity Index [6] | CC50 [7] | Selectivity Index [8] | CC50 [9] | Selectivity Index [10] | CC50 [11]
O=C1/C(=C/c2ccccc2[N+](=O)[O-])CN(P(=O)(O)O)C/C1=C\c1ccccc1[N+](=O)[O-] | 170 nM | 1400 nM | 30 | 320 nM | 100 nM | 6.9 | 3000 nM | 13 | 2100 nM | 22 | 70 nM
CCOP(=O)(OCC)N1C/C(=C\c2cc(OC)c(OC)c(OC)c2)C(=O)/C(=C/c2cc(OC)c(OC)c(OC)c2)C1 | 330 nM | 2000 nM | 6.2 | 430 nM | 160 nM | 4.2 | 2200 nM | 5.5 | 1300 nM | 11 | 290 nM
COc1ccc(/C=C2\CN(P(=O)(O)O)C/C(=C\c3ccc(OC)cc3)C2=O)cc1 | 1700 nM | 107000 nM | 12 | 2200 nM | 3900 nM | 31 | 44000 nM | 40 | 54000 nM | 17 | 5600 nM
CCOP(=O)(OCC)N1C/C(=C\c2ccc([N+](=O)[O-])cc2)C(=O)/C(=C/c2ccc([N+](=O)[O-])cc2)C1 | 330 nM | 3100 nM | 17 | 380 nM | 720 nM | 6.3 | 2200 nM | 7.3 | 1900 nM | 3.3 | 140 nM
CCOP(=O)(OCC)N1C/C(=C\c2cccc([N+](=O)[O-])c2)C(=O)/C(=C/c2cccc([N+](=O)[O-])c2)C1 | 760 nM | 2200 nM | 54 | 740 nM | 260 nM | 3.4 | 3900 nM | 3.3 | 1500 nM | 9.6 | 50 nM
O=C1/C(=C/c2ccc(Cl)cc2)CN(P(=O)(O)O)C/C1=C\c1ccc(Cl)cc1 | 420 nM | 5900 nM | 9.8 | 410 nM | 720 nM | 11 | 5100 nM | 11 | 2600 nM | 6.3 | 460 nM
O=C1/C(=C/c2ccccc2)CN(P(=O)(O)O)C/C1=C\c1ccccc1 | 770 nM | 6900 nM | 12 | 980 nM | 570 nM | 5.8 | 7000 nM | 7.4 | 3200 nM | 10 | 460 nM
CCOP(=O)(OCC)N1C/C(=C\c2ccc(OC)c(OC)c2)C(=O)/C(=C/c2ccc(OC)c(OC)c2)C1 | 1700 nM | 7400 nM | 8.4 | 1400 nM | 500 nM | 4.5 | 5300 nM | 3.7 | 6200 nM | 13 | 750 nM
O=C1/C(=C/c2ccc([N+](=O)[O-])cc2)CN(P(=O)(O)O)C/C1=C\c1ccc([N+](=O)[O-])cc1 | 180 nM | 4100 nM | 21 | 230 nM | 130 nM | 13 | 3400 nM | 17 | 1600 nM | 23 | 140 nM
CCOP(=O)(OCC)N1C/C(=C\c2ccccc2[N+](=O)[O-])C(=O)/C(=C/c2ccccc2[N+](=O)[O-])C1 | 1600 nM | 18000 nM | 37 | 1200 nM | 1800 nM | 12 | 15000 nM | 8.8 | 8300 nM | 7.8 | 380 nM
CCOP(=O)(OCC)N1C/C(=C\c2ccccc2)C(=O)/C(=C/c2ccccc2)C1 | 2400 nM | 11000 nM | 15 | 2500 nM | 1100 nM | 3.7 | 10000 nM | 3.8 | 6500 nM | 8.4 | 610 nM
CCOP(=O)(OCC)N1C/C(=C\c2ccc(C)cc2)C(=O)/C(=C/c2ccc(C)cc2)C1 | 4900 nM | 28000 nM | 6.7 | 4100 nM | 4600 nM | 5.4 | 21000 nM | 4.5 | 18000 nM | 4.8 | 3300 nM
COc1ccc(/C=C2\CN(P(=O)(O)O)C/C(=C\c3ccc(OC)c(OC)c3)C2=O)cc1OC | 400 nM | 2600 nM | 8.1 | 590 nM | 420 nM | 3.6 | 2500 nM | 5.3 | 1300 nM | 5 | 260 nM
CCOP(=O)(OCC)N1C/C(=C\c2ccc(Cl)cc2)C(=O)/C(=C/c2ccc(Cl)cc2)C1 | 1500 nM | 4300 nM | 6.7 | 2000 nM | 640 nM | 2 | 4800 nM | 2.7 | 2800 nM | 6.3 | 600 nM
N[C@@H](Cc1ccc(N(CCCl)CCCl)cc1)C(=O)O [MELPHALAN] | 8700 nM | 161000 nM | 150 | 25000 nM | 32000 nM | 8.4 | 199000 nM | 24 | 269000 nM | 6.6 | 1400 nM
Cc1ccc(/C=C2\CN(P(=O)(O)O)C/C(=C\c3ccc(C)cc3)C2=O)cc1 | 760 nM | 5900 nM | 4.6 | 950 nM | 960 nM | 5.4 | 6100 nM | 6.7 | 3300 nM | 5.3 | 1100 nM
COc1cc(/C=C2\CN(P(=O)(O)O)C/C(=C\c3cc(OC)c(OC)c(OC)c3)C2=O)cc(OC)c1OC | 130 nM | 880 nM | 12 | 270 nM | 120 nM | 3 | 1000 nM | 6.2 | 590 nM | 6.7 | 60 nM
O=C1/C(=C/c2cccc([N+](=O)[O-])c2)CN(P(=O)(O)O)C/C1=C\c1cccc([N+](=O)[O-])c1 | 200 nM | 2300 nM | 30 | 180 nM | 140 nM | 14 | 3300 nM | 13 | 2200 nM | 19 | 90 nM

Source: ChEMBL document CHEMBL1268945, “Sequential cytotoxicity: a theory examined using a series of 3,5-bis(benzylidene)-1-diethylphosphono-4-oxopiperidines and related phosphonic acids” (Bioorg Med Chem Lett, 2010)
